Experiments:
primary cortical neurons [1] = test: Western immunoblot of Aβ aggregation during incubation with neurons; format: cell-based, mouse; conditions: Aβ 500 nM, 4 h; NuPAGE and western immunoblot with 82E1; compared to npAβ or p-Ser26Aβ
Description: Cells were collected by scraping and mechanically homogenized in hypotonic D buffer (10 mM Tris-HCl, pH 7.4, 10 mM NaCl, 0.1 mM EGTA, 25 mM glycerol 2-phosphate, 1 mM DTT) containing protease and phosphatase inhibitors by repeated suspension through a 23 G × 1” needle. Post-nuclear supernatant (PNS) was collected by centrifugation of the mechanically homogenized cellular material at 2,000 g for 5 min. The pellet was the nuclear material. […]
For different cellular fractions prepared as described earlier, the protein content was estimated using the standard Pierce™ BCA protein assay kit (ThermoFisher Scientific, 23225). […] Blots were developed either by enhanced chemiluminescence (ECL) or fluorescence imaging. […] Signals were detected with an ECL imager (Bio-Rad, Germany). For fluorescence detection, blots were imaged on a Li-COR imaging station (Li-COR Biosciences, Germany). […] Quantification of band signals was done using ImageJ – Gel processing module or Image Studio processing software (LiCOR Biosciences, Germany). All samples were analyzed in biological duplicates in two or three independent experiments as indicated in the respective figure legends. […]

[2] = cited from earlier work
primary cortical neurons [3] = test: ELISA of Aβ levels in the treatment media; format: cell-based, mouse; conditions: 4 hours incubation, 500 nM, neurobasal FCS- PS- media, versus amount before incubation, n = 9, N = 3
Description: Primary cortical neurons (DIV14) were treated with 500 nM of monomeric/unaggregated Aβ variants ([…]β and p-[…]β) in neurobasal, FCS^- PS^- media. SH-SY5Y cells seeded on D1, were treated with Aβ variants (1 μM) on D3 in DMEM/F-12 media without serum and antibiotics. Control treatment included treatment with equal volume of 10 mM NaOH solution used for preparing the Aβ stock solutions, in respective cell culture medium. SH-SY5Y cells, after 16 h of transient expression of the reporter constructs, were treated with different Aβ variants, autophagy modulator substrates and respective controls in DMEM/F-12, FCS^- PS^- media for the mentioned time points. […] Cells were either collected by scraping using a cell-scraper or fixed with 4% PFA-PBS for 15 min at RT, for further immunocytochemistry experiments. Collected treatment media was centrifuged at 1000 g for 5 min, pellet discarded and supernatant frozen at -20°C until further usage. Plates (ThermoFisher Scientific, 44-2404-21) were coated with either […]6) or anti-pAβ antibodies ([…]11 and […]) as capture antibody at RT for 2 h and blocked with 1 mg/ml BSA solution in PBS. […] Multiple readings were recorded for a single well and averaged. In each experiment, each sample was analyzed in technical duplicate/triplicate wells as indicated and average values from an independent experiment are presented (Figures 1E, 3G, SA-D and Table S2).

Substance: amyloid-β phosphorylated at serine residue 8 [p-Ser8Aβ]
- SDS resistant aggregates formed during the incubation with neurons (primary cortical neurons [1]): forms more SDS resistant aggregates

Substance: amyloid-β phosphorylated at serine residue 26 [p-Ser26Aβ]
- Assemblies formed (effect of Ser26 phosphorylation) [2]: soluble oligomeric assemblies, rather than fibrillar assemblies

Substance: non-phosphorylated amyloid-β [npAβ, reference compound]
- Levels of Aβ in the treatment media after incubation with primary neurons (primary cortical neurons [3]): significantly decreased
